How the values were obtained:
[1] = tested on: TF-1 cells (FLT3 wild type); assay: Cell proliferation, trypan blue counting, TF-1; assay type: cell-based, human; settings: 200 nM
Protocol: (a) MV4-11 and MOLM-14 FLT3-ITD positive cells, KG1, HL-60 and TF-1 FLT3 wild type cells, and K562 FLT3 negative cells were cultured in the presence of the CDC25 inhibitor IRC-083864 (200 nM). Cells were harvested each day and counted after trypan blue coloration. The graph represents three independent experiments.
Cell lines and reagents. Human acute myeloid leukemia cell lines MOLM-14 (Matsuo Y et al, Leukemia 1997) (kindly provided by Martin Carroll, University of Pennsylvania, Philadelphia, Pa., USA) MV4-11, K562 (ACC-102 and ACC-10, DSMZ, Braunschweig, Germany) and FLT3-ITD-expressing murine BaF3 cells were cultured in RPMI 1640 medium (Gibco, Life Technologies, Carlsbad, Calif., USA) supplemented with 10% fetal bovine serum (Sigma, Saint Louis, Calif., USA). TF-1 (ATCC-CRL2003) cells were cultured in RPMI 1640 medium with 10% fetal bovine serum and GM-CSF 2 ng/ml. Concerning MOLM-14 cell line, the presence of a monoallelic 21 bp FLT3-ITD mutation and of an MLL-containing ins(11; 9)(q23;p22p23) were verified (Hematology laboratory of Toulouse University Hospital, Prof E. Delabesse and Dr I. Luquet). KG1 and HL-60 (ACC-14 and ACC-3, DSMZ) cell lines were grown in Iscove's Modified Dulbecco's Medium (IMDM, Gibco) plus 20% FBS. All cells were grown in the presence of 100 units/ml of penicillin and streptomycin (Invitrogen) at 37° C. and 5% CO2.

MOLM-14 and MV4-11 cells = assay: Differentiation of FLT3-ITD AML cell lines (surface markers, morphology); assay type: cell-based, human
Protocol: (a-b) MOLM-14 and MV4-11 cells were treated for different times with IRC-083864 (100 nM and 200 nM) and the expression of the cell surface markers CD11b, CD14 and CD15 were followed by flow cytometry analysis. (c) MOLM-14 and MV4-11 cells were treated for different times with IRC-083864 (100 nM) and morphological changes were estimated by microscopy after cells were cytospun and stained at days 8 and 13. Original magnification ×100. (d) MOLM-14 cells were treated for different times with IRC-083864 (100 nM) and c-myc expression as well as C/EBPα phosphorylation on serine 21 were analyzed by western blot at day 1, and C/EBPε expression after 6 days of treatment. (e) MOLM-14 cells were transfected with CDC25A shRNA The expression of the cell surface markers CD11b, CD14 and CD15 were followed by flow cytometry analysis at day 3 and 6 (upper panel), and their morphology was analyzed by microscopy after 6 days (lower panel). Original magnification ×100. (f) MOLM-14 cells were transfected with CDC25A siRNA, and their morphology was analyzed by microscopy after 3 days (upper panel). Original magnification ×100. The efficiency of CDC25A siRNA was assessed by western blot analysis (lower panel).
Lentiviral infections. To generate lentiviral vectors expressing CDC25A protein, sequences were cloned into the pTrip-TAL-Ires-GFP lentiviral vector. We used 293-T packaging cells, co-transfected with lentiviral protein (GAG, POL, and ENV) encoding plasmids, and plasmids containing a control or CDC25A genes, separately. Supernatants containing lentivirus were collected 48 h after transfection, during 3 consecutive days. MOLM-14 cells were plated at 5×10^5 cells in 200 μl in serum-free medium and 5 μl of lentiviral supernatant was added during 3 h. Cells were then grown in 10% FBS RPMI medium.
Flow cytometry. Apoptotic cells were detected with Annexin V-FITC detection kit from BD Pharmingen (San Diego, Calif., USA) according to the manufacturer instructions. To evaluate AML cell differentiation, cells were stained for 30 min with the following anti-human monoclonal antibodies: CD11b-PE (Beckman Coulter), CD14-FITC (BD Biosciences), CD15-APC (BD Biosciences). For patient samples, additional hCD45-APC-H7 (BD Biosciences), Annexin V-Pacific Blue (BioLegend, San Diego, Calif., USA) and 7-AAD (Sigma) were used; and for bone marrow mice cells, additional CD33-FITC, CD44-PE Cy7, mCD45-PerCP Cy 5.5, CD14-Alexa 700 were used. Data were collected on a LSRII or a LSRFortessa cytometer (BD Biosciences), and analyzed with FlowJo software. A minimum of 10,000 events was collected.
Morphological examination. […] were spun at 500 rpm for 5 minutes onto glass slides and May-Grünwald-Giemsa stained at the Toulouse University Hospital hematology laboratory.

Cdc25C = Cdc25C (Homo sapiens, UniProt P30307); settings: cited from earlier work
Chain of Cdc25C (P30307 whole entry): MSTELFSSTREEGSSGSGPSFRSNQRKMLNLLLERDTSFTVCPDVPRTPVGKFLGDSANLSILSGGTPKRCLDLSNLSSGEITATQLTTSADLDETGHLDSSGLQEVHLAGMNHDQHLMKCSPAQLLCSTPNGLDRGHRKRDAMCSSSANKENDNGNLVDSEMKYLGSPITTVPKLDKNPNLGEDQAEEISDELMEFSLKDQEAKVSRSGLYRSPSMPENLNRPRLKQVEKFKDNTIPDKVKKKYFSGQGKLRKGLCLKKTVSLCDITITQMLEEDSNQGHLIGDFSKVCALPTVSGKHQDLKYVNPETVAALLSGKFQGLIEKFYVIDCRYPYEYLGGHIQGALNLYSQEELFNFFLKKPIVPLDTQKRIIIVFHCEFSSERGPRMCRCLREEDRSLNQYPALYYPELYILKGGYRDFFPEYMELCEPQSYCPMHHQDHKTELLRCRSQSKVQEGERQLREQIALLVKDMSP

human LNCaP xenografts = settings: intravenous and oral routes; cited from earlier work
HCT-116 tumor spheroids = settings: by induction of p21 and apoptosis; cited from earlier work

Cc1nc2c(s1)C(=O)C=C(NCCCN(C)CCCNC1=CC(=O)c3nc(-c4cc(F)ccc4F)oc3C1=O)C2=O [IRC-083864]
proliferation of TF-1 [1]: did not decrease
expression of CD11b (MOLM-14 and MV4-11 cells; 100 nM and 200 nM, as early as two days): induced in a dose dependent manner
morphological analysis (MOLM-14 and MV4-11 cells; 100 nM, 8 and 13 days): monocytic-like nuclear changes
expression of CD15 (MOLM-14 and MV4-11 cells; after 8 days): either decreased or did not change significantly
expression of monocytic marker CD14 (MOLM-14 and MV4-11 cells; after 8 days, both cell lines): increased
IC50 Cdc25 enzyme type C (Cdc25C): nanomolar range
growth of human LNCaP xenografts (human LNCaP xenografts): reduces the growth
growth of HCT-116 tumor spheroids (HCT-116 tumor spheroids): inhibits the growth

From US10179914B2, “CDC25A inhibitor for the treatment of drug resistant cancer or for the prevention of tumor relapse” (INSERM (INSTITUT NATIONAL DE LA SANTÉ ET DE LA RECHERCHE …, priority 2014, dated 2019)
